# Laboratory results taken from patent US20240409585A1, “MACROCYCLIC IMMUNOMODULATORS” (priority 2021, published 2024).
# Bridge positions count the residues as written; N and C are the ends. Square brackets hold non-standard residues; d marks the D form. Peptide text beside a SMILES is read from it. * marks the point of attachment. Phe(4-COOH) = N[C@@H](Cc1ccc(C(=O)O)cc1)C(=O)O; Bip = N[C@@H](Cc1ccc(-c2ccccc2)cc1)C(=O)O; Phe(3-Me) = Cc1cccc(C[C@H](N)C(=O)O)c1; Val(3-OH) = CC(C)(O)[C@H](N)C(=O)O; Cha = N[C@@H](CC1CCCCC1)C(=O)O; Carboxymethyl = O=C(O)C*; NMeA = CN[C@@H](C)C(=O)O; Pra = C#CC[C@H](N)C(=O)O; Dab = NCC[C@H](N)C(=O)O
# Biological target: T1, PE-labeled human PD-L1-Ig binding to Jurkat cell line over-expressing human PD-1 (Jurkat-PD-1) (Homo sapiens, UniProt Q15116)
# T1 construct: expressed in transfected cells; host or cells: Jurkat
# T1 sequence (Q15116 25-288): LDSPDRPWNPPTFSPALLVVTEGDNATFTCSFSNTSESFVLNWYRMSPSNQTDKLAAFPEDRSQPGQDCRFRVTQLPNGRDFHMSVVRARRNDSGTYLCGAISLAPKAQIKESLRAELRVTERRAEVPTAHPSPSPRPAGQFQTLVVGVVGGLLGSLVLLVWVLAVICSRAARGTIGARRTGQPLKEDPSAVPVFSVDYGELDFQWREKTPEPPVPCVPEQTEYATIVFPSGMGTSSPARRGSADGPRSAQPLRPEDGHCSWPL
# Experiment: Jurkat-PD-1 Cell Binding High-Content Screening Assay (CBA): Method 1
# Settings: Jurkat-hPD-1 cells, PE-labeled PD-L1-Ig 20 nM final; read-out: Jurkat HPDL1 PD1 IC50 (uM) (Method 1)
row,IC50,SMILES
1,0.34 µM,C#CC[C@H](NC(=O)CNC(=O)[C@@H]1CSCC(=O)N[C@@H]([C@@H](C)O)C(=O)N[C@@H](Cc2ccc(OCC(=O)O)cc2)C(=O)N[C@@H](CC(=O)O)C(=O)N[C@@H](Cc2cccc(C)c2)C(=O)N[C@@H](Cc2ccc(OCC(=O)O)cc2)C(=O)N[C@@H](Cc2ccc(-c3ccccc3)cc2)C(=O)N[C@@H](Cc2ccc(OCC(=O)O)cc2)C(=O)N(C)[C@@H](C)C(=O)N[C@H](CC(C)C)C(=O)N[C@@H](CCN)C(=O)N[C@@H](CC2CCCCC2)C(=O)N[C@@H](C(C)(C)O)C(=O)N[C@@H](CCC(=O)O)C(=O)N1)C(=O)O [Compound 1938] ({CH2CO}-TY(Carboxymethyl)D[Phe(3-Me)]Y(Carboxymethyl)[Bip]Y(Carboxymethyl)[NMeA][dL][Dab][Cha][Val(3-OH)]ECG[Pra]-OH; thioether N-14)
2,0.11 µM,C#CC[C@H](NC(=O)CNC(=O)[C@@H]1CSCC(=O)N[C@@H]([C@@H](C)O)C(=O)N[C@@H](Cc2ccc(OCC(=O)O)cc2)C(=O)N[C@@H](CC(=O)O)C(=O)N[C@@H](Cc2cccc(C)c2)C(=O)N[C@@H](Cc2ccc(OCC(=O)O)cc2)C(=O)N[C@@H](Cc2ccc(-c3ccccc3)cc2)C(=O)N[C@@H](Cc2ccc(OCC(=O)O)cc2)C(=O)N(C)[C@@H](C)C(=O)N[C@H](CC(C)C)C(=O)N[C@@H](CCN)C(=O)N[C@@H](CC2CCCCC2)C(=O)N[C@@H](C(C)(C)O)C(=O)N[C@@H](CCC(=O)O)C(=O)N1)C(N)=O [Compound 1939] ({CH2CO}-TY(Carboxymethyl)D[Phe(3-Me)]Y(Carboxymethyl)[Bip]Y(Carboxymethyl)[NMeA][dL][Dab][Cha][Val(3-OH)]ECG[Pra]-NH2; thioether N-14)

# More lines, now with the values behind:
row,SMILES,IC50
1,C#CC[C@H](NC(=O)CNC(=O)[C@@H]1CSCC(=O)N[C@@H](Cc2ccc(OCC(=O)O)cc2)C(=O)N[C@@H](Cc2ccc(C(=O)O)cc2)C(=O)N[C@@H](CC(=O)O)C(=O)N[C@@H](Cc2c[nH]c3ccccc23)C(=O)N[C@@H](CC(C)C)C(=O)N[C@@H](Cc2ccc(-c3ccccc3)cc2)C(=O)N[C@@H](C(C)C)C(=O)N(C)[C@@H](C)C(=O)N[C@H](CC(C)C)C(=O)N[C@@H](CCN)C(=O)N[C@@H](CC2CCCCC2)C(=O)N[C@@H](C(C)C)C(=O)N[C@@H](CO)C(=O)N1)C(=O)O [Compound 1934] ({CH2CO}-Y(Carboxymethyl)[Phe(4-COOH)]DWL[Bip]V[NMeA][dL][Dab][Cha]VSCG[Pra]-OH; thioether N-14),0.01 µM
2,C#CC[C@H](NC(=O)CNC(=O)[C@@H]1CSCC(=O)N[C@@H](Cc2ccc(OCC(=O)O)cc2)C(=O)N[C@@H](Cc2ccc(C(=O)O)cc2)C(=O)N[C@@H](CC(=O)O)C(=O)N[C@@H](Cc2c[nH]c3ccccc23)C(=O)N[C@@H](CC(C)C)C(=O)N[C@@H](Cc2ccc(-c3ccccc3)cc2)C(=O)N[C@@H](C(C)C)C(=O)N(C)[C@@H](C)C(=O)N[C@H](CC(C)C)C(=O)N[C@@H](CCN)C(=O)N[C@@H](CC2CCCCC2)C(=O)N[C@@H](C(C)(C)O)C(=O)N[C@@H](CO)C(=O)N1)C(=O)O [Compound 1935] ({CH2CO}-Y(Carboxymethyl)[Phe(4-COOH)]DWL[Bip]V[NMeA][dL][Dab][Cha][Val(3-OH)]SCG[Pra]-OH; thioether N-14),0.04 µM
3,C#CC[C@H](NC(=O)[C@H](CCN)NC(=O)[C@@H]1CSCC(=O)N[C@@H]([C@@H](C)O)C(=O)N[C@@H](Cc2ccc(OCC(=O)O)cc2)C(=O)N[C@@H](CC(=O)O)C(=O)N[C@@H](Cc2cccc(C)c2)C(=O)N[C@@H](Cc2ccc(OCC(=O)O)cc2)C(=O)N[C@@H](Cc2ccc(-c3ccccc3)cc2)C(=O)N[C@@H](Cc2ccc(OCC(=O)O)cc2)C(=O)N(C)[C@@H](C)C(=O)N[C@H](CC(C)C)C(=O)N[C@@H](CCN)C(=O)N[C@@H](CC2CCCCC2)C(=O)N[C@@H](C(C)(C)O)C(=O)N[C@@H](CCC(=O)O)C(=O)N1)C(=O)O [Compound 1937] ({CH2CO}-TY(Carboxymethyl)D[Phe(3-Me)]Y(Carboxymethyl)[Bip]Y(Carboxymethyl)[NMeA][dL][Dab][Cha][Val(3-OH)]EC[Dab][Pra]-OH; thioether N-14),0.07 µM
